According to US12479844B2, “Ion channel modulators” (Praxis Precision Medicines, Inc., priority 2018, dated 2025):

Biological target: T1, human NaV1.6 (hNaV1.6) (Homo sapiens, UniProt Q9UQD0)
T1 construct: expressed in transfected cells; host or cells: HEK-293
Assay: Modulation of late sodium current (INaL), PatchXpress high throughput electrophysiology
Type: cell-based
Details: HEK293, HEK-293 cells expressing recombinant human NaV1.6, late current evoked by 300 nM ATX-II, read-out: NaV 1.6 Assay Data (percent inhibition of INaL at hNaV1.6)
Protocol: Functional characterization of exemplary compounds to modulate INaL expressed by the NaV1.6 voltage-gated sodium channel was accomplished using the PatchXpress™ high throughput electrophysiology platform (Molecular Devices, Sunnyvale, CA). HEK-293 cells expressing recombinant, human NaV1.6 (hNaV1.6) were grown in DMEM/high-glucose Dulbecco's modified, 10% FBS, 2 mM sodium pyruvate, 10 mM HEPES and 400 μg/mL G418. Cells were grown to 50%-80% confluency prior to harvesting. Trypsinized cells were washed, allowed to recover for 1 hour and then resuspended in extracellular recording solution at a concentration of 1×10^6 cells/ml. The onboard liquid handling facility of the PatchXpress was used for dispensing cells and applying test compounds. NaV late currents were evoked by the application of 300 nM ATX-II. INaL was evoked by depolarizing pulses to 0 mV for 200 ms from a non-inactivating holding potential (e.g., −120 mV) at a frequency of 0.1 Hz. INaL amplitude and stability were determined by analyzing the mean current amplitude over the final 20 ms of thetest pulse. Following steady state block with exemplary compounds (e.g., as described herein), a Na+ free solution containing an impermeant cation (e.g., Choline or NDMG) was added to confirm the identify of the sodium current. Percent steady-state inhibition of INaL was calculated as: [(INaL_compound)/(INaL_control)]*100, where INaL_compound and INaL_control represent INaL recorded in the presence or absence of compound, respectively.

T1 sequence (Q9UQD0 whole entry): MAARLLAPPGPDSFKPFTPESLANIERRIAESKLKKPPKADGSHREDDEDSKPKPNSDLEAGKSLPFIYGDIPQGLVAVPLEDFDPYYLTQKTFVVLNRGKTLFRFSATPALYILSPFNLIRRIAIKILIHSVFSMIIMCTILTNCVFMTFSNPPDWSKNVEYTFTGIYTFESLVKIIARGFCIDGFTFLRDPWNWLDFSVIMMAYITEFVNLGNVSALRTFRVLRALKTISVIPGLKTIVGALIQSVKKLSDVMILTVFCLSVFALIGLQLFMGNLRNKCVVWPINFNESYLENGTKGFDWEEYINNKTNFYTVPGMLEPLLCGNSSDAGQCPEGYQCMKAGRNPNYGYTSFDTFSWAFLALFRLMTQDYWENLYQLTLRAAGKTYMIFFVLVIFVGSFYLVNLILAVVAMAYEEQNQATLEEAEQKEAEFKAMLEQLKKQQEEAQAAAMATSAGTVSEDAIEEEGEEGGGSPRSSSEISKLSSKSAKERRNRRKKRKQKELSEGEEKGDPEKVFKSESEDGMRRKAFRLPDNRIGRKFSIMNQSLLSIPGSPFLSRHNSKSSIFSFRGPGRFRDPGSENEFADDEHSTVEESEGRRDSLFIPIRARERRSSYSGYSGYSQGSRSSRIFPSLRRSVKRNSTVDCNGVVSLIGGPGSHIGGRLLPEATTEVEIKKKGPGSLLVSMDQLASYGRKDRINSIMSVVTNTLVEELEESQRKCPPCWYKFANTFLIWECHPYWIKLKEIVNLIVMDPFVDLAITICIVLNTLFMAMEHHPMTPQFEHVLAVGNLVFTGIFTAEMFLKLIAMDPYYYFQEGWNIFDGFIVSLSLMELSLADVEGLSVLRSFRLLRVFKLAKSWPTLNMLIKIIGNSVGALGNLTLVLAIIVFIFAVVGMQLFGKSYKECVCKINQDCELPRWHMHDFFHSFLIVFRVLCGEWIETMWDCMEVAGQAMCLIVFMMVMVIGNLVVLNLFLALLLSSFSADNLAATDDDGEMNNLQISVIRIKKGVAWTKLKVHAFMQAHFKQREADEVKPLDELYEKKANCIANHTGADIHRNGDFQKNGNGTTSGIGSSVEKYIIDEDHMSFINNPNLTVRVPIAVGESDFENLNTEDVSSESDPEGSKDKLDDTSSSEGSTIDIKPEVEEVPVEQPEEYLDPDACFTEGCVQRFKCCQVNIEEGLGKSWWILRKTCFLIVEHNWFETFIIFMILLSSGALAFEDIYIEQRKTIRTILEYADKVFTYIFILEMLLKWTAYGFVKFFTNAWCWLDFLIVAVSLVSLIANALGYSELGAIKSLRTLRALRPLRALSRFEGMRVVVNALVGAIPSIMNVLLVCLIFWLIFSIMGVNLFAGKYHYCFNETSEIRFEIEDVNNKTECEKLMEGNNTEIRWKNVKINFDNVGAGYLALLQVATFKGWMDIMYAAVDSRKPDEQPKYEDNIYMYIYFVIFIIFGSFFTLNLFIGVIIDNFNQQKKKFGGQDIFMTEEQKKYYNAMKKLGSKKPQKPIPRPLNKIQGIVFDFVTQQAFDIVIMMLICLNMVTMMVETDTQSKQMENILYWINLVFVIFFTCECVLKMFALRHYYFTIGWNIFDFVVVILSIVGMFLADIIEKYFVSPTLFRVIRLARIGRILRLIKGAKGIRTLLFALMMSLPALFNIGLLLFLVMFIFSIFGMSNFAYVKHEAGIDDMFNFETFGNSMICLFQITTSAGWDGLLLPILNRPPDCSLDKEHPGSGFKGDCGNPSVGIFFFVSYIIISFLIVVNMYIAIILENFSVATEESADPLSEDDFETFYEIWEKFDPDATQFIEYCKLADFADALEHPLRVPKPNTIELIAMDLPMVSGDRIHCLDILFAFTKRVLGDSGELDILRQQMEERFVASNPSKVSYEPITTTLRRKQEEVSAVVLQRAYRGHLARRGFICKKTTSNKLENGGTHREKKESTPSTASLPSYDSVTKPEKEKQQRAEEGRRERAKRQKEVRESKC

| Compound | inhibition at 1 µM [%] |
| --- | --- |
| Cc1cc(OC(F)(F)F)ccc1-c1cn2c(COCC(C)C)nnc2cn1 [Compound 7, 3-(isobutoxymethyl)-6-(2-methyl-4-(trifluoromethoxy)phenyl)-[1,2,4]triazolo[4,3-a]pyrazine] | 30 to 70 |
| CCOCc1nnc2ccc(-c3ccc(OC(F)(F)F)cc3C)nn12 [Compound 13, 3-(ethoxymethyl)-6-[2-methyl-4-(trifluoromethoxy)phenyl]-[1,2,4]triazolo[4,3-b]pyridazine] | < 30 |
| COC(F)(F)c1nnc2cnc(-c3ccc(O[C@H](C)C(F)(F)F)cc3C)cn12 (single isomer, unassigned) [Compound 27] | 30 to 70 |
| COC(F)(F)c1nnc2cnc(-c3ccc(OC4CC(F)(F)C4)cc3C)cn12 [Compound 39, 6-[4-(3,3-difluorocyclobutoxy)-2-methyl-phenyl]-3-[difluoro(methoxy)methyl]-[1,2,4]triazolo[4,3-a]pyrazine] | 30 to 70 |
| COC(F)(F)c1nnc2cnc(-c3ccc(OC(F)(F)F)c(C)c3)cn12 [Compound 11, 3-(difluoro(methoxy)methyl)-6-(3-methyl-4-(trifluoromethoxy)phenyl)-[1,2,4]triazolo[4,3-a]pyrazine] | < 30 |
| CCOC(F)(F)c1nnc2cnc(-c3ccc(OC(C)C)cc3C)cn12 [Compound 23, 3-(ethoxydifluoromethyl)-6-(4-isopropoxy-2-methylphenyl)-[1,2,4]triazolo[4,3-a]pyrazine] | 30 to 70 |
| Cc1cc(OC(F)(F)F)ccc1-c1cn2c(COCC3CC3)nnc2cn1 [Compound 16, 3-(cyclopropylmethoxymethyl)-6-[2-methyl-4-(trifluoromethoxy)phenyl]-[1,2,4]triazolo[4,3-a]pyrazine] | 30 to 70 |

Other lines, results leading:

| inhibition at 1 µM [%] | Compound |
| --- | --- |
| 30 to 70 | COC(F)(F)c1nnc2cnc(-c3ccc(OCC(F)(F)F)cc3C)cn12 [Compound 21, 3-(difluoro(methoxy)methyl)-6-(2-methyl-4-(2,2,2-trifluoroethoxy)phenyl)-[1,2,4]triazolo[4,3-a]pyrazine] |
| < 30 | CCOC(F)(F)c1nnc2ccc(-c3ccc(OC(F)(F)F)cc3C)nn12 [Compound 15, 3-[ethoxy(difluoro)methyl]-6-[2-methyl-4-(trifluoromethoxy)phenyl]-[1,2,4]triazolo[4,3-b]pyridazine] |
| 30 to 70 | Cc1cc(OC(F)(F)F)ccc1-c1cn2c(C(F)(F)OC(C)C)nnc2cn1 [Compound 10, 3-(difluoro(isopropoxy)methyl)-6-(2-methyl-4-(trifluoromethoxy)phenyl)-[1,2,4]triazolo[4,3-a]pyrazine] |
| < 30 | CO[C@@H](C)c1cc(OC(F)(F)F)ccc1-c1cn2c(C(F)(F)OC)nnc2cn1 (single isomer, unassigned) [Compound 32] |
| > 70 | CCOC(F)(F)c1nnc2cnc(-c3ccc(OC(F)(F)F)cc3C)cn12 [Compound 4, 3-[ethoxy(difluoro)methyl]-6-[2-methyl-4-(trifluoromethoxy)phenyl]-[1,2,4]triazolo[4,3-a]pyrazine] |
| > 70 | CCOC(F)(F)c1nnc2cnc(-c3ccc(OC(F)(F)F)cc3COC)cn12 [Compound 19, 3-[ethoxy (difluoro)methyl]-6-[2-(methoxymethyl)-4-(trifluoromethoxy)phenyl]-[1,2,4] triazolo [4,3-a] pyrazine] |
| > 70 | CCOC(F)(F)c1nnc2cnc(-c3ccc(OC(F)(F)F)cc3C3CC3)cn12 [Compound 34, 6-[2-cyclopropyl-4-(trifluoromethoxy)phenyl]-3-[ethoxy(difluoro)methyl]-[1,2,4]triazolo[4,3-a]pyrazine] |
| < 30 | COCc1cc(OC(F)(F)F)ccc1-c1cn2c(COC)nnc2cn1 [Compound 17, 3-(methoxymethyl)-6-[2-(methoxymethyl)-4-(trifluoromethoxy)phenyl]-[1,2,4] triazolo[4,3-a]pyrazine] |
